Results published in patent US20060142194A1, “Methods and compounds for treating brain amyloidosis” (Evotec NeuroSciences GmbH, priority 2000, published 2006).
“Also recorded” adds a separate entry of the source.

Key:
NL-1 (neprilysin like 1) = target: T1, NL-1 (neprilysin like 1) (Mus musculus, UniProt Q9JLI3); details: cited from earlier work
T1 sequence (Q9JLI3 63-765): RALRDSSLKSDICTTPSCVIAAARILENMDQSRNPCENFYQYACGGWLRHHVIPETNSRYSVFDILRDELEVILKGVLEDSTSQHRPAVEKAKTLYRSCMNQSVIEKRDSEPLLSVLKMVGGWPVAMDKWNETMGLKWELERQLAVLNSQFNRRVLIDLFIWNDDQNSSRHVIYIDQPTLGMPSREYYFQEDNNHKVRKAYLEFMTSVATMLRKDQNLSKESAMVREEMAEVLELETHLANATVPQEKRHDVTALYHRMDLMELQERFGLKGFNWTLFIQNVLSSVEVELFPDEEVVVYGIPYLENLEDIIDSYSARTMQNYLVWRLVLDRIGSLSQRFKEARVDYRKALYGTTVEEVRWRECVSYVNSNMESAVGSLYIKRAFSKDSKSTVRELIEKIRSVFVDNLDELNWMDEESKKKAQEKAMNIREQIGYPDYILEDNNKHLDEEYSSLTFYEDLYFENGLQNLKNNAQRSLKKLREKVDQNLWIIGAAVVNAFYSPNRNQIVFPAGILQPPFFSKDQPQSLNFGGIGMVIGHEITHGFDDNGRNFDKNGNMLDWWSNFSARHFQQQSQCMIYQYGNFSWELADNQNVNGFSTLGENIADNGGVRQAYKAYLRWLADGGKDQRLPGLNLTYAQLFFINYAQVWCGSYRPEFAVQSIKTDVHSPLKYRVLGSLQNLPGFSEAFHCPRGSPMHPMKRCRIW

[1] = system: angiotensin converting enzyme (ACE); experiment: ACE brain tissue levels; format: in vivo; details: treated vs untreated mice, any examined time point after Aβ42 injection
Procedure: (§1) Preparation of tissue: For combined Western blot analyses and immunohistochemistry, mice were deeply anesthetized and were perfused transcardially using ice-cold PBS (pH 7.4). Frontal cortices of both hemispheres were homogenized in lysis buffer containing 1% Triton X-100, 10 mM Tris, 250 mM sucrose, and 1× complete proteinase inhibitor cocktail, pH=8 (Roche, Switzerland). The remaining brain tissue was fixed over night in 4% paraformaldehyde solution at 4° C. and washed several times in PBS and embedded in paraffin for immuno-histochemistry. For combined immunocytochemistry and Aβ-ELISA, mice were perfused with 4% paraformaldehyde and postfixed in the same solution over night. […]
(§2) Western-blot analysis: Protein concentration of brain extracts were determined with the Bredford protein assay and equal amounts of protein (60 μg) were loaded to each lane of 8% acrylamid gels in Laemmli buffer. […]
(§3) Role of other Aβ degrading enzymes: To determine whether other Aβ-degrading proteases were involved in preventing amyloid formation in the above described mice, brain tissue levels of insulin-degrading enzyme (IDE), a 100 kD Zn-metallo-proteinase that is a major Aβ-degrading enzyme in tissue culture (Qiu W. Q. et al., J. Biol. Chem. 273, 32730-32738, 1998; Vekrellis K. et al., J. Neurosci., 20, 1657-1665, 2000) were analysed by immunohistochemistry and Western blotting. […]

transgenic SwAPP mice [2] = experiment: Brain amyloid plaque staining and counts (thioflavin S, 4G8) in SwAPP mice; format: in vivo
Procedure: Animals: Transgenic mice expressing the AD-causing Swedish double mutant of the human APP gene were generated and bred as described previously (Hsiao K. K. et al., Neuron 15, 1203-1218, 1995; Hsiao K. et al., Science 274, 99-102, 1996). All mice used in this study were the progeny of a single SwAPP male, crossbred to wild-type littermates. The colony was housed under a light cycle of 12 hours with dry food and water ad libitum. The presence of the transgene was determined by PCR on genomic DNA isolated from tail biopsies using specific primers GTGGATAACCCCTCCCCCAGCCTAGACCA and CTGACCACTCGACCAGGTTCTGGGT to the transgene. […] After the injection, the needle was left in place for 1 more minute, and then was slowly withdrawn over a period of 1 minute. […]
(§4) To be sure that no amyloid plaques were missed in the mice, every 50th coronal section (250 μm apart) of all mice was stained, beginning with a random section of the olfactory bulbs. […] Existing plaques in 3 representative sections of each mouse were counted. […] To determine whether the reduced amyloid pathology was associated with reduced concentrations of transgenic Aβ, human Aβ was measured by a sandwich ELISA that specifically recognized intact human Aβ (Nitsch, R. M. et al., Ann. Neurol. in Press). As expected, no human Aβ was detected by ELISA in wild-type mice.

[3] = system: insulin-degrading enzyme (IDE); experiment: IDE brain tissue levels by immunohistochemistry and Western blotting; format: in vivo, mice; details: in response to Aβ42 injections
Procedure: as §1, §2, §3

transgenic SwAPP mice [4] = experiment: GFAP staining of reactive astrocytes (astrogliosis); format: in vivo
Procedure: Preparation of tissue: For combined Western blot analyses and immunohistochemistry, mice were deeply anesthetized and were perfused transcardially using ice-cold PBS (pH 7.4). Frontal cortices of both hemispheres were homogenized in lysis buffer containing 1% Triton X-100, 10 mM Tris, 250 mM sucrose, and 1× complete proteinase inhibitor cocktail, pH=8 (Roche, Switzerland). The remaining brain tissue was fixed over night in 4% paraformaldehyde solution at 4° C. and washed several times in PBS and embedded in paraffin for immuno-histochemistry. For combined immunocytochemistry and Aβ-ELISA, mice were perfused with 4% paraformaldehyde and postfixed in the same solution over night. The caudal parts of the brains reaching from intraaural 1 to intraaural −2 (Franklin, K. B. J, Paxinos, G. Academic Press, 1997) were dissected and prepared for Aβ ELISA. The remaining brain tissue was embedded in paraffin and then processed for immunohistochemistry. Five μm thick paraffin sections were probed with antibodies against NEP, IDE (Insulin degrading enzyme), ACE (Angiotensin converting enzyme), endopeptidase 24.15 protein, and GFAP (glial fibrillary protein) according to providers' protocols and counterstained with nuclear fast red (Fluka, Switzerland).
Prevention of amyloid formation was accompanied by reduced reactive astrocytosis: Because brain amyloidosis in SwAPP mice is accompanied by reactive astrocytosis, GFAP-reactive astrocytes were analysed in response to the Aβ42-injection protocol (FIG. 6 a-c). […] Similar activation of astrocytes in brain regions unaffected by amyloid plaque formation is a well established finding in transgenic mice that overexpress disease-causing APP mutants (Schenk D. et al., Nature 400, 173-177, 1999). It may be explained by high sensitivity of hippocampal astrocytes to unknown toxic activities related to the expression of the SwAPP transgene; these may well be independent of amyloid plaque formation.

NEP [5] = experiment: NEP immunohistochemistry of brain sections after intracranial Aβ42 injection; format: in vivo; details: single intracranial injection of 1 μl aggregated Aβ42 (350 μM); SwAPP and wild-type mice; 11 and 20 weeks after injection; vs PBS
Procedure: Animals: Transgenic mice expressing the AD-causing Swedish double mutant of the human APP gene were generated and bred as described previously (Hsiao K. K. et al., Neuron 15, 1203-1218, 1995; Hsiao K. et al., Science 274, 99-102, 1996). All mice used in this study were the progeny of a single SwAPP male, crossbred to wild-type littermates. The colony was housed under a light cycle of 12 hours with dry food and water ad libitum. The presence of the transgene was determined by PCR on genomic DNA isolated from tail biopsies using specific primers GTGGATAACCCCTCCCCCAGCCTAGACCA and CTGACCACTCGACCAGGTTCTGGGT to the transgene. […] After the injection, the needle was left in place for 1 more minute, and then was slowly withdrawn over a period of 1 minute.
Preparation of tissue: For combined Western blot analyses and immunohistochemistry, mice were deeply anesthetized and were perfused transcardially using ice-cold PBS (pH 7.4). […]
In contrast, in SwAPP mice as well as in wild-type littermates injected with PBS vehicle alone, neuronal NEP staining was weak and diffuse (FIG. 2 a-c, g-i). […] To confirm this finding, we next analysed brain proteins prepared from Aβ42-injected mice extracts by Western blotting.

NEP [6] = experiment: Western blot and densitometry of NEP in brain extracts after Aβ42 injection; format: in vivo; details: as early as one week after Aβ42 injection; SwAPP and wild-type mice; vs uninjected or PBS-injected
Procedure: Actin was used to control for equal loading (a). […] The intensity of each NEP and actin bands was measured using the NIH-Image software. […] Data represent means of each group+SEM * p≦0.05, ** p≦0.01, Mann-Whitney U test. n=3 for each group.
All mice used in this study were the progeny of a single SwAPP male, crossbred to wild-type littermates. The colony was housed under a light cycle of 12 hours with dry food and water ad libitum. […] After the injection, the needle was left in place for 1 more minute, and then was slowly withdrawn over a period of 1 minute.
Western-blot analysis: Protein concentration of brain extracts were determined with the Bredford protein assay and equal amounts of protein (60 μg) were loaded to each lane of 8% acrylamid gels in Laemmli buffer. After electrophoresis proteins were blotted on nitrocellulose membranes (Amersham). Membranes were probed for NEP using the monoclonal antibody 56C6 at a dilution of 1:50. […]

metalloprotease 24.15 = experiment: Metalloprotease 24.15 brain levels; format: in vivo, mice; details: in response to Aβ injections
Procedure: as §1, §2, §3

human Aβ = experiment: Aβ sandwich ELISA on formic acid extracted brain tissue; format: in vivo; details: SwAPP mice, 20 weeks after injection, n=4; vs untreated SwAPP littermates; p≦0.05
Procedure: as §1
Aβ-ELISA: For quantitation of Aβ content in mouse brain, protein extracts of fixed brain tissue reaching from the stereotaxic coordinates intraaural 1 to intraaural −2 were prepared. […] 150 μl diluted samples or standards (Aβ40 Bachem) were incubated overnight, washed, and detected with biotinylated monoclonal mouse antibody 6H1 directed against amino acids 1-17 of human Aβ (Evotec Neurosciences GmbH) incubated at a concentration of 1 μg/ml in blocking buffer for 2 hours at 37° C., and visualised with a peroxidase reaction using tetramethylbenzidine as substrate, and detection at 450 nm. […]

PDAPP transgenic mouse = details: cited from earlier work
APP = APP levels by Western blots of protein extracts; format: in vivo; details: Aβ42- or vehicle treated, or untreated transgenic mice
Procedure: Western-blot analysis: Protein concentration of brain extracts were determined with the Bredford protein assay and equal amounts of protein (60 μg) were loaded to each lane of 8% acrylamid gels in Laemmli buffer. After electrophoresis proteins were blotted on nitrocellulose membranes (Amersham). Membranes were probed for NEP using the monoclonal antibody 56C6 at a dilution of 1:50. Blots were stripped in a buffer containing 2% SDS, 62.5 mM Tris (pH 6.8) and 100 mM β-mercaptoethanol at 50° C. for 30 minutes. After stripping the membrane were probed sequentially with anti-Alzheimer precursor protein A4 antibody (clone 22C11, 1:1000), IDE-1 (1:800), ACE (1:200), and the polyclonal antibody to 24.15 protein (1:600). Finally, staining for actin (1:1000) was performed as a loading control. […]
as §4

## CC(C)C[C@H](NP(=O)(O)O[C@@H]1O[C@@H](C)[C@H](O)[C@@H](O)[C@H]1O)C(=O)N[C@@H](Cc1c[nH]c2ccccc12)C(=O)O [phosphoramidon]
NL-1 (neprilysin like 1)
  inhibition of NL-1: efficiently inhibited

## Aβ42: Fibrillar aggregated synthetic Aβ42 prepared by resuspending lyophilized Aβ42 (Bachem) in PBS, pH 7.4 by shaking for 48 hours at 37° C.
[1]
  ACE levels: did not differ
Transgenic SwAPP mice [2]; SwAPP mice at 31 weeks of age, 20 weeks after single injection (4/4), vs untreated SwAPP mice
  thioflavin S- or 4G8-positive amyloid plaques: significant reduction; also recorded: completely free
Transgenic SwAPP mice [2]; SwAPP mice, 20 weeks after injection, vs untreated littermates, p≦0.05
  plaque counts of 4G8 stained amyloid plaques: significantly reduced; also recorded: marked significant decrease
[3]
  tissue levels of IDE: no differences
Transgenic SwAPP mice [4]; Aβ42-treated SwAPP mice
  GFAP-positive astrocytes in hippocampi: abundant
Transgenic SwAPP mice [4]; SwAPP mice after Aβ42 injections
  amyloid plaque-associated clusters of GFAP-positive cells: completely absent
Transgenic SwAPP mice [4]; SwAPP mice, 20 weeks after injection, vs untreated SwAPP littermates
  GFAP staining of reactive astrocytes in cerebral cortices: significantly lower
NEP [5]
  neuronal NEP immunoreactivity: increased
NEP [6]
  NEP protein levels in brain extracts (Western blot): significant increase; also recorded: significantly higher
Metalloprotease 24.15
  metalloprotease 24.15 levels: unchanged
Human Aβ
  brain Aβ levels (ELISA, formic acid extracted total Aβ): significantly reduced; also recorded: untreated control SwAPP mice (n=4) were significantly higher than in Aβ42-treated SwAPP mice
PDAPP transgenic mouse; immunisation of young animals (6 weeks of age)
  β-amyloid-plaque formation, neuritic dystrophy and astrogliosis: essentially prevented
PDAPP transgenic mouse; treatment of older animals (11 months)
  extent and progression of AD-like neuropathologies: markedly reduced
APP
  APP levels: no difference
